Holding throughout (type): biochemical
For one test, the target named is T1, Recombinant human HDAC2 (Homo sapiens, UniProt Q92769).
T1 construct: Full length human HDAC2-FLAG was expressed in baculovirus infected Sf9 cells; FLAG (C); made in house; host or cells: Sf9 (baculovirus)
Briefly: Human HDAC enzyme inhibitor Fluor-de-Lys assay, HDAC2. In a few lines:
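Fluor-de-Lys format at room temperature (23° C.): compounds titrated 10-point, 1:3, preincubated with HDAC before substrate addition. Developer with excess HDAC inhibitor ends the reaction, and trypsin-liberated AMC fluorescence is the read-out.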

For a further test, the target named is T2, Recombinant human HDAC8 (Homo sapiens, UniProt Q9BY41).
T2 construct: purchased Enzo Life Sciences BML-SE145-0100
T2 sequence (Q9BY41 1-377): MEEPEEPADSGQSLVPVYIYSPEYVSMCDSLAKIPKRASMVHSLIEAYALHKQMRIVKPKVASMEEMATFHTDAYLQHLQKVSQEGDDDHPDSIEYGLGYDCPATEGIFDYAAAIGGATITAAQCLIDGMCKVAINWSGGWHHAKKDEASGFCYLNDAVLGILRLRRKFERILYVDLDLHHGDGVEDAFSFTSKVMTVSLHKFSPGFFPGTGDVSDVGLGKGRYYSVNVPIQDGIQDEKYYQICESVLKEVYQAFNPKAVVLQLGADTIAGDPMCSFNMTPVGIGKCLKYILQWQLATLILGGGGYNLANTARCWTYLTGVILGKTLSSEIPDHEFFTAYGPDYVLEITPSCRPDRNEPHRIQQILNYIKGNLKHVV
Briefly: Human HDAC enzyme inhibitor Fluor-de-Lys assay, HDAC8.

A further test has as its target T3, Recombinant human HDAC1 (Homo sapiens, UniProt Q13547).
T3 construct: FLAG (C); made in house
In words: Human HDAC enzyme inhibitor Fluor-de-Lys assay, HDAC1. The procedure, abridged:
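Fluor-de-Lys format at room temperature (23° C.): compounds titrated 10-point, 1:3, preincubated with HDAC before substrate addition; HDAC1 run at 0.3 nM enzyme with 20 μM BML-KI104. Developer with excess HDAC inhibitor ends the reaction, and trypsin-liberated AMC fluorescence is the read-out.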

A further test has as its target T4, HDAC6 (Homo sapiens, UniProt Q9UBN7).
T4 sequence (Q9UBN7 1-1215): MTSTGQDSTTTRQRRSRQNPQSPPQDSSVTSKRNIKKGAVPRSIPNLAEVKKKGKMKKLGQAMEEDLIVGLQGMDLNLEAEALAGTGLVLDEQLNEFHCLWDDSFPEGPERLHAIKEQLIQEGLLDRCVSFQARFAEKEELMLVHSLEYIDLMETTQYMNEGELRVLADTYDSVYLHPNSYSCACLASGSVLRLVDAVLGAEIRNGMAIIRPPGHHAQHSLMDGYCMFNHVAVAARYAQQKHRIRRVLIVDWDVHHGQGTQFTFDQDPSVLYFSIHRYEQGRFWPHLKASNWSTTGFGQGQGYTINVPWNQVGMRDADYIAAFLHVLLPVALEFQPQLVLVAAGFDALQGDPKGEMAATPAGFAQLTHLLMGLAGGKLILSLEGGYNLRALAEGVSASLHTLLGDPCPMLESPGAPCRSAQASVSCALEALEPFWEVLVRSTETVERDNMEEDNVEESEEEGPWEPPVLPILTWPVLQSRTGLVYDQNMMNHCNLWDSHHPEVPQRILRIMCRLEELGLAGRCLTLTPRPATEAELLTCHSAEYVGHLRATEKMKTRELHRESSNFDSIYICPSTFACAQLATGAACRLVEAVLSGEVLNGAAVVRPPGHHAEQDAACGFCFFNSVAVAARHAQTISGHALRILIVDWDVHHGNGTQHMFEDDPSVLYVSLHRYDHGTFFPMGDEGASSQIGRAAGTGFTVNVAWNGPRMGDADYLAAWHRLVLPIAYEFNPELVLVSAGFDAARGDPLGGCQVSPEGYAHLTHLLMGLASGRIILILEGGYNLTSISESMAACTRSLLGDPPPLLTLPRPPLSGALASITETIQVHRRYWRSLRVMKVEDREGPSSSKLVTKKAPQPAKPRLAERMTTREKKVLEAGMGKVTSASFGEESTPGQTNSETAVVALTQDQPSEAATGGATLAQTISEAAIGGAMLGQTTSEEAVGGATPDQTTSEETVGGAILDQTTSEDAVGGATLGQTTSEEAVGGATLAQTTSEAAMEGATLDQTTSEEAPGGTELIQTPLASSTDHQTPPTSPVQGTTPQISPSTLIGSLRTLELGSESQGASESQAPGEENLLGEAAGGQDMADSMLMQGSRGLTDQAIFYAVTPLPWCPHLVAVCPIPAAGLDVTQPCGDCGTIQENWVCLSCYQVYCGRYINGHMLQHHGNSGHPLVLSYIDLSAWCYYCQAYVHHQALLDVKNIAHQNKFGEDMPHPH
Briefly: Human HDAC enzyme inhibitor Fluor-de-Lys assay, HDAC6.

[1] abbreviates: recombinant human HDAC2, Fluor-de-Lys assay.
Setting [2] is: recombinant human HDAC8, Fluor-de-Lys assay.
[3] abbreviates: recombinant human HDAC1, Fluor-de-Lys assay.

pIC50: −log10 of the molar value. Read-outs that look alike come from different tables or passages of the source.

T1 sequence (Q92769 whole entry): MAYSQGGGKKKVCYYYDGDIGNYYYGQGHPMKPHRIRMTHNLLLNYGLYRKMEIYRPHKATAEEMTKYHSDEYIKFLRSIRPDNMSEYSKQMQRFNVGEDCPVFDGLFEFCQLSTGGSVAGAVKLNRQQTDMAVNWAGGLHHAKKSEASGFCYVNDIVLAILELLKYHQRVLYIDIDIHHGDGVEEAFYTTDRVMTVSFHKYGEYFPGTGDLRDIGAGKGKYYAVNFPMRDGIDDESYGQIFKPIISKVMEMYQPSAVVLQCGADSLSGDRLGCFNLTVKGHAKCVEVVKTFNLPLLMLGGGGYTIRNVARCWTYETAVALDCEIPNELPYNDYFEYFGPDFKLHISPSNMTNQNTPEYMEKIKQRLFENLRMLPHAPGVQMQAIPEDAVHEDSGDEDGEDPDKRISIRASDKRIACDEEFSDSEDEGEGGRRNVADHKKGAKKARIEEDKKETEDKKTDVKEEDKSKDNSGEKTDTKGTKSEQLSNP
T3 sequence (Q13547 whole entry): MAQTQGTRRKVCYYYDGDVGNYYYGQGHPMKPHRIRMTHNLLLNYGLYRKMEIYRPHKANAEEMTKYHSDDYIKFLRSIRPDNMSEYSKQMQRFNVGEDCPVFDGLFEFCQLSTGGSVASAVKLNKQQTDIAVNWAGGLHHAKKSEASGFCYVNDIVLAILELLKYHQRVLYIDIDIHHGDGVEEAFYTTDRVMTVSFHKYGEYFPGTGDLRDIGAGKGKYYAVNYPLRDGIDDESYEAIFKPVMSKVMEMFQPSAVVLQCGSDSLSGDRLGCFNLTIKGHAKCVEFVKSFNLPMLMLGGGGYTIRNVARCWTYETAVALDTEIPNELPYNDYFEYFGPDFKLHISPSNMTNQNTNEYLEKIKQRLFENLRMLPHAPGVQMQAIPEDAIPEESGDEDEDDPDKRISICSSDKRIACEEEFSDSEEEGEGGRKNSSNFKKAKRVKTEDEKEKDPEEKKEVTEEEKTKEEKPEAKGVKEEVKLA

On to `CCC(=O)CCCCC[C@H](NC(=O)[C@H]1CC12CCN(C)CC2)c1ncc(-c2ccc3ccc(C)nc3c2F)[nH]1` [Compound 354], for which the negative-log IC50 (pIC50) was 7.95 on Recombinant human HDAC2 (setting [1]); 6.10 at Recombinant human HDAC8 (setting [2]); 8.74 on Recombinant human HDAC1 (setting [3]); 6.45 at HDAC6 (HDAC6, Fluor-de-Lys assay).
For `CCC(=O)CCCCC[C@H](NC(=O)[C@H]1CC12CCN(CC)CC2)c1ncc(-c2ccc(-n3cccn3)cc2)o1` [Compound 95], the pIC50 is 7.50 on Recombinant human HDAC2, 4.69 at Recombinant human HDAC8, 8.28 at Recombinant human HDAC1 and 5.90 at HDAC6.
For the compound `CCC(=O)CCCCC[C@H](NC(=O)[C@H]1CC12CCN(C)CC2)c1ncc(-c2cn(C)c3ccccc23)[nH]1` [Compound 264], the negative-log IC50 (pIC50) was 8.23 on Recombinant human HDAC2 (setting [1]); 5.94 at Recombinant human HDAC8 (setting [2]); 8.75 at Recombinant human HDAC1 (setting [3]); 5.77 on HDAC6 (HDAC6, Fluor-de-Lys assay).
On to `CCC(=O)CCCCC[C@H](NC(=O)[C@H]1CC12CCN(C)CC2)c1ncc(-c2ccc(F)cc2)[nH]1` [Compound 280], for which the pIC50 on Recombinant human HDAC2 (setting [1]) is 6.91; at Recombinant human HDAC8 (setting [2]) it was 4.97; on Recombinant human HDAC1 (setting [3]), 7.52; at HDAC6 (HDAC6, Fluor-de-Lys assay) it was 4.95.
Take `CCC(=O)CCCCC[C@H](NC(=O)[C@H]1CC12CCN(C)CC2)c1ncc(-c2ccc(C(F)(F)F)cc2)[nH]1` [Compound 284]: the pIC50 on Recombinant human HDAC2 (setting [1]) is 7.09; at Recombinant human HDAC8 (setting [2]), 4.83; on Recombinant human HDAC1 (setting [3]), 7.73; against HDAC6 (HDAC6, Fluor-de-Lys assay) it was 4.87.
For the compound `CCC(=O)CCCCC[C@H](NC(=O)[C@H]1CC12CCN(C)CC2)c1nnc(-c2cc3ccccc3nc2OC)o1` [Compound 306], the pIC50 was 7.24 on Recombinant human HDAC2 (setting [1]); less than 4.35 on Recombinant human HDAC8 (setting [2]); 7.89 on Recombinant human HDAC1 (setting [3]); 5.93 against HDAC6 (HDAC6, Fluor-de-Lys assay).
In the case of `CCC(=O)CCCCC[C@H](NC(=O)[C@H]1CC12CCN(C(C)C)CC2)c1ncc(-c2cc3ccccc3nc2OC)o1` [Compound 99], the pIC50 at Recombinant human HDAC2 is 7.75; at Recombinant human HDAC8, 4.48; at Recombinant human HDAC1, 8.45; at HDAC6, 6.96.
As for `CCC(=O)CCCCC[C@H](NC(=O)[C@H]1CC12CCN(C)CC2)c1ncc(-c2cnc(-n3cc(C)cn3)nc2)[nH]1` [Compound 257], the pIC50 is 6.73 on Recombinant human HDAC2 (setting [1]); 4.98 on Recombinant human HDAC8 (setting [2]); 7.19 on Recombinant human HDAC1 (setting [3]); 4.44 on HDAC6 (HDAC6, Fluor-de-Lys assay).
Taken in the same sequence, the figures for `CCC(=O)CCCCC[C@H](NC(=O)CC1CC2(C1)CN(C)C2)c1ncc(-c2cc3ccccc3nc2O)[nH]1` [Compound 326] were 8.05, less than 5.35, 8.49 and less than 5.82.
Take `CCC(=O)CCCCC[C@H](NC(=O)[C@H]1CC12CCN(C(C)C)CC2)c1ncc(-c2ccc3c(ccc(=O)n3C)c2)o1` [Compound 96]: the negative-log IC50 (pIC50) at Recombinant human HDAC2 is 7.35; at Recombinant human HDAC8, less than 4.35; at Recombinant human HDAC1, 8.16; against HDAC6 it was 5.14.
With `CCC(=O)CCCCC[C@H](NC(=O)C1=NOC2(CCN(CC3CC3)CC2)C1)c1ncc(-c2cc3ccc(C)nc3cc2OC)o1` [Compound 225], the negative logarithm of the IC50 (pIC50) at Recombinant human HDAC2 (setting [1]) is 8.21; on Recombinant human HDAC8 (setting [2]), less than 6.05; at Recombinant human HDAC1 (setting [3]) it was 9.22; at HDAC6 (HDAC6, Fluor-de-Lys assay), 6.12.
Regarding `CCC(=O)CCCCC[C@H](NC(=O)CC1CC2(C1)CN(C)C2)c1ncc(-c2ccccc2)[nH]1` [Compound 307], the negative logarithm of the IC50 (pIC50) was 6.21 on Recombinant human HDAC2 (setting [1]); 4.87 on Recombinant human HDAC8 (setting [2]); 7.20 on Recombinant human HDAC1 (setting [3]); 4.92 against HDAC6 (HDAC6, Fluor-de-Lys assay).
Regarding `CCC(=O)CCCCC[C@H](NC(=O)[C@H]1CC12CCN(C)CC2)c1[nH]c(-c2ccc(F)cc2)nc1Cl` [Compound 91], the pIC50 was 7.85 on Recombinant human HDAC2, 4.50 on Recombinant human HDAC8, 8.36 at Recombinant human HDAC1 and 4.56 against HDAC6.
With `CCC(=O)CCCCC[C@H](NC(=O)C1CC12CC1CCC(C2)N1C)c1ncc(-c2ccc3ncccc3c2)[nH]1` (single isomer, unassigned) [Compound 242], the pIC50 at Recombinant human HDAC2 (setting [1]) is 7.79; on Recombinant human HDAC8 (setting [2]), 5.29; at Recombinant human HDAC1 (setting [3]), 8.40; against HDAC6 (HDAC6, Fluor-de-Lys assay) it was 6.88.
Take `CCC(=O)CCCCC[C@H](NC(=O)C1CC12CCN(CC)CC2)c1nc(-c2ccc(F)cc2)[nH]c1-c1ccn(C)c1` (stereo partly shown) [Compound 251]: the negative-log IC50 (pIC50) at Recombinant human HDAC2 (setting [1]) was 7.90; on Recombinant human HDAC8 (setting [2]) it was 4.53; on Recombinant human HDAC1 (setting [3]) it was 8.56; on HDAC6 (HDAC6, Fluor-de-Lys assay) it was 4.38.
`CCC(=O)CCCCC[C@H](NC(=O)C1NC(=O)CC12CN(C)C2)c1ncc(-c2cc3ccccc3nc2OC)[nH]1` (stereo partly shown) [Compound 317]: the pIC50 at Recombinant human HDAC2 (setting [1]) was 8.30; at Recombinant human HDAC8 (setting [2]), 5.31; on Recombinant human HDAC1 (setting [3]), 9.06; against HDAC6 (HDAC6, Fluor-de-Lys assay), 6.73.
Regarding `CCC(=O)CCCCC[C@H](NC(=O)C1=NOC2(CCN(C)CC2)C1)c1ncc(-c2ccc(-c3cnccn3)cc2OC)o1` [Compound 237, N-{(1S)-1-[5-(2-methoxy-4-pyrazin-2-ylphenyl)-1,3-oxazol-2-yl]-7-oxononyl}-8-methyl-1-oxa-2,8-diazaspiro[4.5]dec-2-ene-3-carboxamide], the pIC50 on Recombinant human HDAC2 (setting [1]) was 7.57; at Recombinant human HDAC8 (setting [2]) it was less than 6.05; on Recombinant human HDAC1 (setting [3]) it was 8.62; at HDAC6 (HDAC6, Fluor-de-Lys assay), less than 6.05.
On to `CCC(=O)CCCCC[C@H](NC(=O)[C@H]1CC12CCN(CC1CC1)CC2)c1ncc(-c2cc3ccc(C)nc3cc2F)[nH]1` [Compound 228], for which the pIC50 at Recombinant human HDAC2 (setting [1]) is 9.22; at Recombinant human HDAC8 (setting [2]), less than 6.05; at Recombinant human HDAC1 (setting [3]), 9.92; on HDAC6 (HDAC6, Fluor-de-Lys assay) it was less than 6.05.
As for `CCC(=O)CCCCC[C@H](NC(=O)[C@H]1CC12CCN(C)CC2)c1nc(Cl)c(-c2cc3ccccc3nc2O)[nH]1` [Compound 81, (1S)—N-{(1S)-1-[4-chloro-5-(2-hydroxyquinolin-3-yl)-1H-imidazol-2-yl]-7-oxononyl}-6-methyl-6-azaspiro[2.5]octane-1-carboxamide], the pIC50 is 6.47 at Recombinant human HDAC2, 5.27 on Recombinant human HDAC8, 7.05 on Recombinant human HDAC1 and 5.41 at HDAC6.
For `CCC(=O)CCCCC[C@H](NC(=O)[C@H]1CC12CCN(CC)CC2)c1ncc(-c2ccc3nn(C4CC4)cc3c2)[nH]1` [Compound 238], the pIC50 at Recombinant human HDAC2 (setting [1]) was 8.72; on Recombinant human HDAC8 (setting [2]), 5.19; at Recombinant human HDAC1 (setting [3]) it was 9.66; against HDAC6 (HDAC6, Fluor-de-Lys assay), 5.11.
As for `CCC(=O)CCCCC[C@H](NC(=O)[C@H]1CC12CCN(C)CC2)c1ncc(-c2ccc3ncoc3c2)[nH]1` [Compound 89], the negative-log IC50 (pIC50) was 5.01 at Recombinant human HDAC8, 8.44 on Recombinant human HDAC1 and 5.12 against HDAC6.
Take `CCC(=O)CCCCC[C@H](NC(=O)[C@H]1CC12CCN(C)CC2)c1ncc(-c2ccccc2F)[nH]1` [Compound 290]: the pIC50 on Recombinant human HDAC2 (setting [1]) is 7.13; at Recombinant human HDAC8 (setting [2]) it was 5.28; on Recombinant human HDAC1 (setting [3]) it was 7.81; on HDAC6 (HDAC6, Fluor-de-Lys assay) it was 5.22.
The like results for `CCC(=O)CCCCC[C@H](NC(=O)C1CC12CCN(CC)CC2)c1nc(-c2ccc(F)cc2)[nH]c1-c1cnn(C)c1` (stereo partly shown) [Compound 248] were, in that order, 7.62, 4.65, 8.23 and less than 4.35.

A word on the pIC50: it is −log10 of the IC50, conventionally taken in molar units.

Source of the values: patent publication US12590099B2, “Inhibitors of histone deacetylase useful for the treatment or prevention of HIV infection” (Merck Sharp & Dohme LLC, priority 2018, dated 2026).
